Among the test systems are 786-0 renal; COLO 205 colon; MOLT-4 leukemia; NCI-H460 lung; OVCAR-4 ovarian; RPMI-8226 leukemia; SF-539 CNS; SK-MEL-5 melanoma; SN12C renal; SNB-75 CNS.
Assay in all cases: inhibition of tumour cell growth, NCI panel, 48 h

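Growth conditions: 96-well plates. Treatment: test compound, 48 hours, 5 concentrations. Analysis: linear interpolation between bracketing concentrations; unreached endpoints set to highest concentration. At the GI50, growth is halved. TGI: concentration producing complete growth inhibition.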

For the molecule `COc1cc2c(cc1OCCCOc1cc3c(cc1OC)C(=O)N1CC(F)(F)C[C@H]1C=N3)N=C[C@@H]1CC(F)(F)CN1C2=O`, the TGI in the experiment on 786-0 renal stood at 0.877 µM; in the experiment with COLO 205 colon, 2.49 µM; in the experiment on MOLT-4 leukemia, 1.72 µM; with NCI-H460 lung it was 2.45 µM; in the experiment with OVCAR-4 ovarian, 17.4 µM; in the experiment with RPMI-8226 leukemia it was 5.79 µM. In addition, the TGI was 2.72 µM with SF-539 CNS, 2.39 µM with SK-MEL-5 melanoma, over 37.2 µM with SN12C renal and 18.4 µM with SNB-75 CNS. The GI50 in the experiment with COLO 205 colon was 0.814 µM; in the experiment with MOLT-4 leukemia, 0.0383 µM; in the experiment on NCI-H460 lung it was 0.0551 µM; in the experiment on OVCAR-4 ovarian, 3.45 µM; in the experiment on RPMI-8226 leukemia, 1.64 µM; with SF-539 CNS, 0.165 µM. Also, the GI50 is 1.15 µM with SK-MEL-5 melanoma, 0.269 µM with SN12C renal and 1.58 µM in the experiment on SNB-75 CNS.

With `COc1ccc2c(c1)C(=O)c1c-2n(CCCCl)c(=O)c2cc([N+](=O)[O-])ccc12`, the TGI with 786-0 renal was 0.159 µM; in the experiment with COLO 205 colon it was over 100 µM; with OVCAR-4 ovarian, 33.6 µM; with RPMI-8226 leukemia, 1.6 µM; in the experiment with SF-539 CNS, 0.456 µM; in the experiment on SK-MEL-5 melanoma, 2.07 µM. The TGI in the experiment with SN12C renal was over 20.3 µM; in the experiment with SNB-75 CNS, over 100 µM. The GI50 is 0.902 µM with COLO 205 colon; under 0.0211 µM in the experiment with MOLT-4 leukemia; under 0.0178 µM in the experiment on NCI-H460 lung; 0.224 µM in the experiment with OVCAR-4 ovarian; 0.075 µM in the experiment on RPMI-8226 leukemia; 0.11 µM in the experiment with SF-539 CNS. Also, the GI50 with SK-MEL-5 melanoma is 0.498 µM.

As for `N=C(N)SC(c1ccccc1)c1ccccc1`, the TGI with 786-0 renal stood at 25.2 µM; in the experiment on COLO 205 colon, 47.1 µM; with MOLT-4 leukemia, 56.6 µM; in the experiment with NCI-H460 lung it was 37.1 µM; in the experiment on OVCAR-4 ovarian it was 37.6 µM; in the experiment with RPMI-8226 leukemia, 31.7 µM. Moreover, the TGI in the experiment on SF-539 CNS came to 37.7 µM; in the experiment on SK-MEL-5 melanoma, 32.2 µM; in the experiment on SN12C renal, 32.7 µM.

With `NS(=O)(=O)c1ccc(C(=O)O)cc1`, the TGI in the experiment with 786-0 renal, with COLO 205 colon, in the experiment on MOLT-4 leukemia, with OVCAR-4 ovarian, in the experiment with RPMI-8226 leukemia and in the experiment on SK-MEL-5 melanoma was over 100 µM throughout. Further, the TGI in the experiment on SN12C renal is over 100 µM.

Regarding `CC(C)(c1ccccc1)c1ccc(Oc2ccc3c(c2)-c2nc-3nc3[nH]c(nc4nc(nc5[nH]c(n2)c2ccc(Oc6ccc(C(C)(C)c7ccccc7)cc6)cc52)-c2cc(Oc5ccc(C(C)(C)c6ccccc6)cc5)ccc2-4)c2ccc(Oc4ccc(C(C)(C)c5ccccc5)cc4)cc32)cc1`, the TGI with 786-0 renal, in the experiment on COLO 205 colon, in the experiment on MOLT-4 leukemia, in the experiment with NCI-H460 lung, in the experiment with RPMI-8226 leukemia and in the experiment on SF-539 CNS was over 100 µM in each case. Moreover, the TGI was over 100 µM in the experiment on SK-MEL-5 melanoma and 67.8 µM in the experiment with SNB-75 CNS.

Turning to `Cc1cccc(NC(N)=S)c1`, the TGI in the experiment with MOLT-4 leukemia, in the experiment with NCI-H460 lung, in the experiment with OVCAR-4 ovarian, in the experiment with SF-539 CNS, in the experiment with SN12C renal and with SNB-75 CNS was over 100 µM throughout.

Turning to `O=C(Nc1ccc(-n2ccc3c(NC(=O)c4ccccc4)ncnc32)cc1)Nc1ccc(Cl)c(C(F)(F)F)c1`, the GI50 was 2.63 µM with COLO 205 colon; 1.87 µM in the experiment on MOLT-4 leukemia; 1.35 µM with NCI-H460 lung; 1.57 µM in the experiment on OVCAR-4 ovarian; 1.03 µM in the experiment on RPMI-8226 leukemia; 0.654 µM with SF-539 CNS. Further, the values for the GI50 in the experiment on SK-MEL-5 melanoma, in the experiment with SN12C renal and in the experiment on SNB-75 CNS were 2.43 µM, 2.43 µM and 1.67 µM, respectively. In addition, the TGI with COLO 205 colon worked out at 5.86 µM; in the experiment with MOLT-4 leukemia, 4.82 µM; with NCI-H460 lung, 3.06 µM; in the experiment on OVCAR-4 ovarian, 3.48 µM; in the experiment with RPMI-8226 leukemia, 2.84 µM; in the experiment on SF-539 CNS it was 3.9 µM. Besides, the figures for the TGI with SK-MEL-5 melanoma, in the experiment on SN12C renal and in the experiment with SNB-75 CNS were 11.3 µM, 6.58 µM and 8.08 µM, respectively.

Take `CCc1cc(C)cc2[n+]1CC=C2C`: the TGI with 786-0 renal, in the experiment on COLO 205 colon, in the experiment on NCI-H460 lung, in the experiment with OVCAR-4 ovarian, in the experiment on SF-539 CNS and in the experiment on SK-MEL-5 melanoma was over 100 µM throughout. In addition, the TGI with SN12C renal and in the experiment on SNB-75 CNS was over 100 µM each time.

For `CN(C)C=O.CN(C)C=O.CN1C(C(=O)Nc2ccccn2)=C([O-])c2ccccc2S1(=O)=O.CN1C(C(=O)Nc2ccccn2)=C([O-])c2ccccc2S1(=O)=O.[Cu+2]`, the TGI with 786-0 renal is over 100 µM; with COLO 205 colon it was over 100 µM; in the experiment on NCI-H460 lung it was over 100 µM; in the experiment on OVCAR-4 ovarian it was 78.7 µM; with RPMI-8226 leukemia it was over 100 µM; with SF-539 CNS it was over 100 µM. Further, the TGI with SK-MEL-5 melanoma is 36.8 µM; with SN12C renal it was over 100 µM; with SNB-75 CNS it was 49.5 µM. In the experiment on NCI-H460 lung, the GI50 is 32.5 µM.

As to `COc1ccc(C(=O)NNC(=O)c2nsc3ccccc23)cc1`, the TGI with COLO 205 colon, with MOLT-4 leukemia, in the experiment on OVCAR-4 ovarian, in the experiment with RPMI-8226 leukemia, in the experiment with SF-539 CNS and in the experiment on SK-MEL-5 melanoma was over 100 µM in each case. The molecule further displayed a TGI with SN12C renal of over 100 µM.

In the case of `COC(=O)C12OCC34C(CC5C(C)C6=CC(=O)OC6=CC5(C)C3C(O)C1O)OC(=O)C(OC(C)=O)C24` (stereo unspecified), the TGI amounted to 29.1 µM in the experiment on 786-0 renal; 22.6 µM in the experiment on COLO 205 colon; 45.6 µM with MOLT-4 leukemia; 51.8 µM in the experiment with NCI-H460 lung; 41.2 µM with OVCAR-4 ovarian; 40.5 µM with RPMI-8226 leukemia. Further, the TGI in the experiment with SF-539 CNS amounted to 34 µM; in the experiment with SK-MEL-5 melanoma, 24.9 µM; with SN12C renal, 39.9 µM; in the experiment on SNB-75 CNS, 42.1 µM. Also, the GI50 in the experiment with SNB-75 CNS was 14.7 µM.

For `O=C1CC(c2ccccc2)NCCCCN2CC(CN1)C(C(O)c1ccccc1)C2=O` (stereo unspecified), the TGI with 786-0 renal, in the experiment on COLO 205 colon, in the experiment with MOLT-4 leukemia, with NCI-H460 lung, with OVCAR-4 ovarian and in the experiment on SF-539 CNS was over 100 µM throughout. Also, the TGI with SK-MEL-5 melanoma, in the experiment with SN12C renal and with SNB-75 CNS was over 100 µM throughout.

In the case of `CC1(C)CCCC2(C)C3=C(CCC12)C(=O)OC3` (stereo unspecified), the TGI in the experiment with 786-0 renal is over 100 µM; in the experiment on COLO 205 colon, over 100 µM; with MOLT-4 leukemia it was over 100 µM; in the experiment with OVCAR-4 ovarian, over 100 µM; in the experiment with RPMI-8226 leukemia, 68.5 µM; in the experiment with SF-539 CNS, over 100 µM. Further, the TGI in the experiment with SK-MEL-5 melanoma, in the experiment with SN12C renal and with SNB-75 CNS was over 100 µM each time.

As for `NC(CCCNc1ccc(O)cc1)C(=O)O` (stereo unspecified), the TGI was 31.5 µM in the experiment on 786-0 renal; over 90.3 µM in the experiment with COLO 205 colon; 56.9 µM with MOLT-4 leukemia; over 100 µM with NCI-H460 lung; 31.7 µM in the experiment on OVCAR-4 ovarian; 54.8 µM in the experiment on RPMI-8226 leukemia. The TGI is 83.5 µM in the experiment on SF-539 CNS, 63.8 µM with SK-MEL-5 melanoma, over 70.6 µM with SN12C renal and over 100 µM with SNB-75 CNS.

As for `Cc1cc(N2CCCCC2)nc(NCc2cc(Nc3ccnc4cc(Cl)ccc34)ccc2F)n1`, the GI50 in the experiment with COLO 205 colon was 0.329 µM; in the experiment on MOLT-4 leukemia, 1.67 µM; in the experiment on NCI-H460 lung, 1.99 µM; in the experiment on OVCAR-4 ovarian, 1.39 µM; with RPMI-8226 leukemia it was 1.88 µM; in the experiment with SF-539 CNS, 1.58 µM. Moreover, the figures for the GI50 with SK-MEL-5 melanoma, with SN12C renal and with SNB-75 CNS were 1.05 µM, 1.67 µM and 1.39 µM, respectively. Besides, the TGI in the experiment on COLO 205 colon was found to be 1.4 µM; with MOLT-4 leukemia it was 4.82 µM; with NCI-H460 lung, 4.17 µM; in the experiment with OVCAR-4 ovarian it was 2.95 µM; in the experiment with RPMI-8226 leukemia, 4.55 µM; with SF-539 CNS, 3.04 µM. In addition, the TGI in the experiment with SK-MEL-5 melanoma worked out at 2.25 µM; with SN12C renal it was 3.62 µM; in the experiment with SNB-75 CNS, 2.83 µM.

With `NCc1ccc(O)c(O)c1O`, the TGI worked out at 30.1 µM in the experiment with 786-0 renal; 35.5 µM in the experiment on COLO 205 colon; 64.9 µM with MOLT-4 leukemia; 34 µM in the experiment on NCI-H460 lung; 41 µM in the experiment with OVCAR-4 ovarian; 64.8 µM in the experiment on RPMI-8226 leukemia. Moreover, the TGI was over 62.5 µM in the experiment on SF-539 CNS, 56 µM in the experiment on SK-MEL-5 melanoma, 37.3 µM in the experiment with SN12C renal and over 100 µM in the experiment with SNB-75 CNS.

Turning to `Cn1c(=O)c2c(nc(N3CCOCC3)n2CCCNCC(O)c2ccc(O)c(O)c2)n(C)c1=O` (stereo unspecified), the TGI in the experiment with 786-0 renal, with COLO 205 colon, with MOLT-4 leukemia, with NCI-H460 lung, in the experiment with OVCAR-4 ovarian and in the experiment on RPMI-8226 leukemia was over 100 µM in each case. Moreover, the TGI in the experiment on SF-539 CNS, in the experiment on SK-MEL-5 melanoma, in the experiment with SN12C renal and in the experiment with SNB-75 CNS was over 100 µM throughout.

Consider `Cc1nc2ccccc2c(=O)n1Nc1ccc(C(=O)O)cc1`, for which the TGI in the experiment with COLO 205 colon, in the experiment with MOLT-4 leukemia, with NCI-H460 lung, with OVCAR-4 ovarian, in the experiment on RPMI-8226 leukemia and in the experiment on SF-539 CNS was over 100 µM throughout. Besides, the TGI in the experiment on SK-MEL-5 melanoma, with SN12C renal and in the experiment with SNB-75 CNS was over 100 µM in each case.

For `CC(C)C(C)C(O)C(O)C(C)C1CCC2C3COC(=O)C4CC(O)C(O)CC4(C)C3CCC12C` (stereo unspecified), the TGI in the experiment on 786-0 renal was over 100 µM; in the experiment with COLO 205 colon, over 100 µM; in the experiment on MOLT-4 leukemia, 59.1 µM; in the experiment with NCI-H460 lung, over 100 µM; with OVCAR-4 ovarian it was over 100 µM; in the experiment with SF-539 CNS it was over 100 µM. For the same molecule, the TGI in the experiment with SK-MEL-5 melanoma and in the experiment on SN12C renal was over 100 µM throughout.
